Reference: patent US9610359B2, “Methods and compositions related to annexin 1-binding compounds” (Burnham Institute for Medical Research, priority 2009, dated 2017)
No end group written: not given here.

What was measured:
[1] = system: carbohydrate-dependent cancer cell colonization to the lung; conditions: synthetic peptide injected intravenously into mice; cited from earlier work
[2] = system: annexin 1 (Anxa1) fragment; conditions: cited from earlier work
normal lung = conditions: through pre-mRNA splicing factors; cited from earlier work
F-2 cells monolayer = test: transport through F-2 cell monolayer in trans well chamber; format: cell-based, mouse
Protocol: (§1) A. Binding of IF7C(RR)-conjugated FITC-polylysine on the surface of mouse endothelial F-2 cells cultured in vitro. B. Transport of […] FITC-poly-L-lysine through apical surface to basal space of F-2 cells monolayer. F-2 cells cultured on a filter of trans well insert was added with IF7C(RR)-conjugated FITC-poly-L-lysine to allow the reagent being bound to apical cell surface of F-2 cells. After washing the monolayer with medium, insert was placed in wells containing medium at 37° C. or at 4° C. Fluorescence moved to the lower chamber of insert was measured. C. Targeting and penetration of intravenously injected IF7C(RR)-conjugated FITC-poly-L-lysine in the B16 tumor in vivo in the mouse. Tissue section was immunostained for endothelial cell marker CD31.
(§2) Thus IFLLWQR-C-RR (SEQ ID NO: 17) or IF7C(RR) was synthesized. […] The cytoplasmic and nuclear FITC signals are consistent with the localization of Anxa1 in the cytoplasm and nucleus (Gerke, 2005 #5299). […] (FIG. 12B). […] To determine if the binding and transport of IF7C(RR) occur in vivo in the tumor vasculature, IF7C(RR)-conjugated FITC-poly-L-lysine was injected intravenously into a B16 tumor-bearing mouse. […] Small molecules such as SN-38 conjugated with IF7C(RR) can penetrate to the tumor deeper and faster than the large molecule such as poly-L-lysine.

[3] = system: Anxa1-expressing mouse endothelial F-2 cells; test: binding to the surface of F-2 cells cultured in vitro; format: cell-based
Protocol: as §1, §2

B16 tumor vasculature = test: targeting and penetration in B16 tumor vasculature after intravenous injection; format: in vivo; conditions: B16 tumor-bearing mouse
Protocol: as §1, §2

Anxa1-His protein [4] = molecular target: T1, Anxa1-His protein (Homo sapiens, UniProt P04083); test: surface plasmon resonance on Anxa1 coated chip; format: binding; conditions: qualitative
T1 construct: Full-length cDNA encoding Anxa1 was obtained from Invitrogen (Carlsbad, Calif.) and subcloned into pET29a vector; His6 (C); made in house; host or cells: bacteria (pET29a vector, Novagen)
T1 sequence (P04083 1-346): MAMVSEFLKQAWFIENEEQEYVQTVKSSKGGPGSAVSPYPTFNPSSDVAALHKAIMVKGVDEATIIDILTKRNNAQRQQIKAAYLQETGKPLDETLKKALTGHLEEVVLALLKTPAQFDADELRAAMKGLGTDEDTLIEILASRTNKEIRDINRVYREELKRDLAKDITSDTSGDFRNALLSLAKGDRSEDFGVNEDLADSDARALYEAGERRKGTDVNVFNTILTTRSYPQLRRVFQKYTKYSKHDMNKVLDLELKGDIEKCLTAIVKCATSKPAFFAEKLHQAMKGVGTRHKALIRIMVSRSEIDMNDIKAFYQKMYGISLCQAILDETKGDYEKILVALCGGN
Protocol: IASys (Affinity Sensors, Cambridge, UK) was used. Anxa1-His protein was immobilized on the sensor chip by cross-linking to the aminosilane surface using bis[sulfosuccinimidyl] substrate (Pierce). Binding of IF7C dissolved in TBSC was recorded for 2 min, and dissociation of IF7C was initiated by adding TBSC to the sensor chip and the arc second was recorded for 5 min.

Anxa1-His protein [5] = molecular target: T1, Anxa1-His protein; test: isothermal titration calorimetry (ITC) with Anxa1-His protein; format: binding; conditions: qualitative
Protocol: ITC was performed on a VP-ITC calorimeter from Microcal (Northampton, Mass.). In this analysis IF7K3C peptide or […] (SEQ ID NO:12), in which IF7 was modified by inserted with three lysine residues between IF7 and C to increase solubility in water. Eight μl aliquots of solution containing 1.0 or 1.5 mM were injected into the cell containing 100 or 150 μM Anxa1-His protein. In each experiment 37 injections were made. The experiments were performed at 23° C. in buffer containing 20 mM Tris pH 7.9, 250 mM NaCl, 1 mM CaCl2 and 10% dimethylsulfoxide. Experimental data were analyzed using Microcal Origin software provided by the ITC manufacturer (Microcal, Northampton, Mass.).

[6] = system: Mouse melanoma B16F1 tumors; format: in vivo; conditions: B16 melanoma, 0.13 μmoles iv
Protocol: (a) Mouse melanoma B16F1 tumors were grown subcutaneously in C57BL6 mice. On day 10, each mouse was injected intravenously with either 100 μl of 5% glucose or that containing 0.13 μmoles of each IF7, GA, or IF7-GA. Injections were administered every other day, for a total of three injections, until day 14. […] B, Histochemistry of tumors from the mice intravenously injected with the compounds described in A. Apoptotic tumor cells along blood vessels in transplanted tumors are detected by TUNEL assay. B16 melanoma (a), LLC lung carcinoma (b), PC3 prostate tumor (c) and MDA-MB-231 breast tumor (d) from mice treated with each compound.
Injections were administered every other day, for a total of 7 injections, until day 26, as shown by arrows.

Anxa1-His6 protein = molecular target: T2, Anxa1-His6 protein (Homo sapiens, UniProt P04083); test: inhibition of binding of FITC-labeled polyacrylamide-LeA oligosaccharide to Anxa1-His6
T2 construct: Full-length cDNA encoding Anxa1 was obtained from Invitrogen (Carlsbad, Calif.) and subcloned into pET29a vector; His6 (C); made in house; host or cells: bacteria (pET29a vector, Novagen)
T2 sequence (P04083 1-346): T1 sequence (P04083 1-346)
Excerpt: (§3) FIGS. 1A-1H show the essential role of annexin 1 (Anxa1) in tumor growth and identification of a peptide sequence with tumor vasculature targeting activity in vivo. A and B. Growth of B16 tumors subcutaneously injected into Anxa1(+/−) and Anxa1(−/−) mutant mice. C. Histology of B16 tumors produced in Anxa1(+/−) and Anxa1(−/−) mice. Each scale bar represents 2.00 mm. D. Immunohistochemistry of B16 tumors for CD31 showing endothelial cells and vasculature. Each scale bar represents 200 μm. E. In vivo phage targeting in B16 tumor-bearing mice. Numbers of transformed colonies recovered from the tumor or lung were determined. […] F. In vivo tumor and organ targeting activity of IFLLWQR (SEQ ID NO:2) displaying phage. Phage was injected into B16 tumor bearing mice pre-injected with anti-Anxa1 antibody or with control rabbit IgG. G. In vitro plate assay for binding of IF7-A488 (upper line) and control RQ7-A488C (lower line) to recombinant […] protein produced by bacteria. H. Effect of IF7 (upper line) and control RQ7 (lower line) on binding of FITC-labeled polyacrylamide-LeA oligosaccharide to Anxa1-His6 protein.
Full-length cDNA encoding Anxa1 was obtained from Invitrogen (Carlsbad, Calif.) and subcloned into pET29a vector (Novagen) to produce an […] fusion protein. […] After washing the plate, fluorescence was measured by a Molecular Devices Analyst HT plate reader. […]

[7] = system: Mouse Lewis lung carcinoma (LLC) tumors; test: subcutaneous Lewis lung carcinoma tumor model; format: in vivo; conditions: 0.13 μmoles iv
Protocol: (§4) FIGS. 6A and 6B show the effect of IF7-GA on melanoma, lung carcinoma, prostate cancer, and breast cancer mouse models. A, Effect of IF7-GA on tumor size. […] Mice were euthanised on day 15 to measure tumor weight. […] Mice were euthanised on day 13 and tumors weighed. (c) Human prostate cancer PC3 tumors were grown orthotopically in the prostate of SCID mice. On day 7, each mouse was injected intravenously with the compounds as in A-a, and injections administered every 4 days, for a total of four injections, until day 22. Mice were euthanised on day 28 and tumors weighed. (d) Human breast cancer MDA-MB-231 tumors were grown orthotopically in fat pads of SCID mice. On day 7, each mouse was injected intravenously with the compounds as in A-a, and injections performed every 4 days, for a total of four injections, until day 22. […] B, Histochemistry of tumors from the mice intravenously injected with the compounds described in A. Apoptotic tumor cells along blood vessels in transplanted tumors are detected by TUNEL assay. […]
(§5) Mouse melanoma B16F1 cells (2×10^5 cells/100 μl serum-free DMEM) were injected subcutaneously into the dorsal flank of C57BL/6 female mice (8-10 weeks old). […] On day 15, mice were sacrificed and tumor weights determined. […] On day 13, mice were sacrificed and tumor weights determined. […] On day 28, mice were sacrificed and prostate tumor weights determined. […]

[8] = system: Human breast cancer MDA-MB-231 tumors; test: orthotopic MDA-MB-231 breast cancer model in SCID mice; format: in vivo; conditions: MDA-MB-231 breast tumor, 0.13 μmoles iv
Protocol: as §4, §5

B16 tumor = test: in vivo phage targeting in B16 tumor-bearing mice; parameters: species or system mouse
Excerpt: as §3
Mouse melanoma B16F1 cells (2×10^5 cells/100 μl PBS) were injected subcutaneously into the dorsal flank of C57BL/6 female mice (8-10 weeks old). […] Colonies appearing on an agar plate after culturing at 37° C. for 20 hours were counted.

[9] = system: Human prostate cancer PC3 tumors; test: orthotopic PC3 prostate cancer model in SCID mice; format: in vivo; conditions: 0.13 μmoles iv
Protocol: as §4, §5

IELLQAR [I-peptide, selectin ligand mimicry peptide]
cancer cell colonization to the lung [1]: inhibited carbohydrate-dependent cancer cell colonization to the lung | binding to annexin 1 fragment [2]: bound to an annexin 1 (Anxa1) fragment | targeting to normal lung (normal lung): also targets to normal lung

IF7C(RR)-conjugated FITC-poly-L-lysine: IF7C(RR) conjugated to FITC-poly-L-lysine (IFLLWQRCRR; also: conjugated to FITC-poly-L-lysine, site not given here)
transport of fluorescence to the lower chamber at 4° C. (F-2 cells monolayer; 4° C.): not at 4 °C | transport of fluorescence to the lower chamber at 37° C. (F-2 cells monolayer; 37° C.): fluorescence migrated to the lower chamber | binding to the surface of F-2 cells [3]: bound to the surface of Anxa1-expressing mouse endothelial F-2 cells | localization of fluorescence in tumor tissue sections (B16 tumor vasculature): green fluorescence signals around the abluminal area of the vasculatures

IFLLWQR (annexin-1 binding compound) [IF7]
binding to Anxa1 by surface plasmon resonance (Anxa1-His protein [4]): confirmed | binding to Anxa1 by isothermal titration assay (Anxa1-His protein [5]): confirmed | apoptosis of perivascular tumor cells (TUNEL, histochemistry) [6]: rarely show apoptosis | inhibition of fucosylated carbohydrate (LeA) binding to Anxa1 (Anxa1-His6 protein): inhibited by IF7 | apoptosis of perivascular tumor cells (TUNEL) [7]: rarely show apoptosis | apoptosis of perivascular tumor cells (TUNEL) [8]: rarely show apoptosis | targeting to the lung in tumor-bearing mice (B16 tumor; mouse, in vivo): could not be detected | organ targeting of intravenously injected phage clone (B16 tumor; tumor versus lung, B16 tumor-bearing mice): targets tumor but not lung tissue | apoptosis of perivascular tumor cells (TUNEL) [9]: rarely show apoptosis
